One compound from patent EP2131850B1, “EXTRACTS OF ASTER KORAIENSIS, AND PHARMACEUTICAL COMPOSITION AND FUNCTIONAL FOOD COMPRISING THE SAME” (Korea Institute of Oriental Medicine, priority 2007, dated 2008) can be followed below.

≈ marks a conversion by molar mass, not a printed value.

The series concerns production of advanced glycation endproducts (glycation of bovine serum albumin (BSA)). Nature of the series: In vitro inhibition of production of advanced glycation endproducts (BSA/fructose/glucose culture, fluorescence). It is filed as biochemical. Particulars: for Inhibition (%) of production of advanced glycation endproducts Inhibition: cultured at 37 °C for 14 days. On the procedure: For the in vitro analysis of the inhibitory effect cf each cf the leaf and stem extract of Aster koraiensis, the root extract of Aster koraiensis, the flower extract of Aster koraiensis, and the fractions cf each of the extracts, on the production cf advanced glycation endproducts, bovine serum albumin (hereinafter, referred to as BSA; Sigma, USA)) was selected as a protein source. BSA was added to 50 mM phosphate buffer (pH 7.4) to a concentration of 10 mg/mℓ. As a sugar source, a mixture of 0.2 M fructose and 0.2 M glucose was used. The fructose/glucose mixture was added to the prepared BSA solution. As test groups, each of the leaf and stem extract cf Aster koraiensis, the root extract cf Aster koraiensis, the flower extract of Aster koraiensis, and the hexane fraction, ethyl acetate fraction, butanol fraction and water fraction of each cf the extracts, was dissolved in distilled water. Then, each of the solutions was added to the BSA/sugar mixture and cultured at 37 °C for 14 days.
At this time, 0.02% sodium azide was added as an antibacterial agent. A control group was a culture of the BSA/sugar mixture, and the blank of each cf the test groups and the control group was not cultured after their preparation. Meanwhile, as a positive control for use as an index to determine the superiority cf the inventive material, aminoguanidine was used. Four samples for each of the cultures were prepared to minimize errors. After 14 days, the content of advanced glycation endproducts (AGEs) in each of the cultures was analyzed, and the analysis results were recorded. […] The amount cf advanced glycation endproducts having such properties was measured with a spectrofluorometer (excitation: 350 nm, and emission: 450 nm) to analyze the inhibition of the production of advanced glycation endproducts. […]
Each of the root extract and flower extract of Aster koraiensis, prepared in Example, were prepared into solutions having concentrations cf 10 µg/mℓ, 25 µg/mℓ and 50 µg/mℓ, respectively. […] After 14 days, the amount of advanced glycation endproducts produced in each of the cultures was measured with a spectrcfluorometer (excitation: 350 nm, and emission: 450 nm), and the measurement results are shown in Table 1 and FIG. 2.
The inhibition of the production of advanced glycation endproducts is calculated according to the following equation: Inhibition (%) of production = 100-(fluorescentintensityofsamplegroupfluorescentintensityofblankofsamplegroup)/(fluorenscentintensityofcontrolgroup-fluorescentintensityofblankofcontrolgroup)x100 [formula] […]
After 14 days, the amount cf advanced glycation endproducts produced in each cf the cultures was measured with a spectrcfluorometer (excitation: 350 nm, and emission: 450 nm).

As to `N=C(N)NN` [Aminoguanidine], the “Inhibition (%) of production of advanced glycation endproducts Inhibition” value (“Inhibition (%)” below) (concentration 18.5 µg/mℓ) stood at 12.70 ± 6.12%, the “Inhibition (%)” value (concentration 55.5 µg/mℓ) was found to be 39.46 ± 1.91% and the “Inhibition (%)” value (concentration 74.0 µg/mℓ) is 50.68 ± 0.51%. Where the note is “production of advanced glycation endproducts, BSA/sugar mixture, 14 days”, the IC50 inhibitory concentration was determined as 72.12 µg/mL (≈ 973 µM).
